Measurements: PMC4775225, “Bromodomain inhibition of the transcriptional coactivators CBP/EP300 as a therapeutic strategy to target the IRF4 network in multiple myeloma” (eLife, 2016)

Assays:
Assay in all cases: Viability, resazurin, 6 days
Format in all cases: cell-based
VAL = settings: Homo sapiens, 144 h, ALL
Description: (§1) Cells were plated at 5000–10000 cells per well of 96-well plates containing titrations of the compounds as indicated. After incubation, the cells were incubated with 500 μg/ml resazurin (Sigma) in PBS for 2–8 hr, and fluorescence was measured (Ex 530 nm, Em 590 nm). Cell cycle analysis was performed as described previously ([Mertz et al., 2011]). For visualization, DNA content histograms were generated with GraphPad Prism. Dose-response curves were generated by plotting the normalized percent growth, percent sub-G1 and percent increase in G0/G1 at each dose values. GI50 values were determined as the concentration at which viability was 50% of the DMSO value and calculated by a four-parameter non-linear regression model in GraphPad Prism.

OCI-AML-3 = settings: Homo sapiens, 144 h, OCI-AML-3, AML
Description: as §1

KMS21BM = settings: Homo sapiens, KMS-21BM, 144 h, myeloma
Description: as §1

KMS27 = settings: Homo sapiens, KMS-27, 144 h, KMS27, myeloma
Description: as §1

SKNO-1 = settings: Homo sapiens, 144 h, SKNO-1, AML
Description: as §1

MV411 = settings: Homo sapiens, MV4-11, 144 h, MV411, AML
Description: as §1

MOLT4 = settings: Homo sapiens, MOLT-4, 144 h, MOLT4, ALL
Description: as §1

JJN3 = settings: Homo sapiens, JJN-3, 144 h, JJN3, myeloma
Description: as §1

NOMO-1 = settings: Homo sapiens, 144 h, NOMO-1, AML
Description: as §1

380 = settings: Homo sapiens, 144 h, 380, ALL
Description: as §1

MN-60 = settings: Homo sapiens, 144 h, MN-60, ALL
Description: as §1

MOLM-13 = settings: Homo sapiens, 144 h, MOLM-13, AML
Description: as §1

NB4 = settings: Homo sapiens, NB-4, 144 h, NB4, APL
Description: as §1

Kasumi-2 = settings: Homo sapiens, 144 h, Kasumi-2, AML
Description: as §1

ROS 50 = settings: Homo sapiens, 144 h, ROS 50, ALL
Description: as §1

EJM = settings: Homo sapiens, 144 h, myeloma
Description: as §1

PL21 = settings: Homo sapiens, PL-21, 144 h, PL21, APL
Description: as §1

THP-1 = settings: Homo sapiens, 144 h, THP-1, AML
Description: as §1

REH = settings: Homo sapiens, 144 h, ALL
Description: as §1

U266 = settings: Homo sapiens, U-266, 144 h, U266, myeloma
Description: as §1

KOPN-8 = settings: Homo sapiens, 144 h, KOPN-8, ALL
Description: as §1

KMS12PE = settings: Homo sapiens, KMS-12-PE, 144 h, myeloma
Description: as §1

HL60 = settings: Homo sapiens, HL-60, 144 h, HL60, APL
Description: as §1

OCI-AML-5 = settings: Homo sapiens, 144 h, OCI-AML-5, AML
Description: as §1

KMS28PE = settings: Homo sapiens, KMS-28PE, 144 h, myeloma
Description: as §1

KMS-11 = settings: Homo sapiens, 144 h, KMS-11, myeloma
Description: as §1

SET2 = settings: Homo sapiens, SET-2, 144 h, SET2 D6, AML
Description: as §1

SKM-1 = settings: Homo sapiens, 144 h, SKM-1, AML
Description: as §1

K562 = settings: Homo sapiens, 144 h, K562, CML
Description: as §1

KMS12BM = settings: Homo sapiens, KMS-12-BM, 144 h, myeloma
Description: as §1

Molt-16 = settings: Homo sapiens, 144 h, Molt-16, ALL
Description: as §1

Jurkat = settings: Homo sapiens, 144 h, ALL
Description: as §1

KMS26 = settings: Homo sapiens, KMS-26, 144 h, KMS26, myeloma
Description: as §1

Tanoue = settings: Homo sapiens, 144 h, ALL
Description: as §1

ML2 = settings: Homo sapiens, ML-2, 144 h, ML2, AML
Description: as §1

KMS34 = settings: Homo sapiens, KMS-34, 144 h, KMS34, myeloma
Description: as §1

SEM cells = settings: Homo sapiens, 144 h, ALL
Description: as §1

SD-1 = settings: Homo sapiens, 144 h, SD-1, ALL
Description: as §1

OCI-AML-2 = settings: Homo sapiens, OCI-AML2, 144 h, OCI-AML-2, AML
Description: as §1

Row | GI50 (OCI-AML-3) [µM] | GI50 (SKNO-1) [µM] | GI50 (MV411) [µM] | GI50 (MOLT4) [µM] | GI50 (MOLM-13) [µM] | GI50 (THP-1) [µM] | GI50 (U266) [µM] | SMILES | GI50 (VAL) [µM] | GI50 (KMS21BM) [µM] | GI50 (KMS27) [µM] | GI50 (JJN3) [µM] | GI50 (NOMO-1) [µM] | GI50 380 [µM] | GI50 (MN-60) [µM] | GI50 (NB4) [µM] | GI50 (Kasumi-2) [µM] | GI50 (ROS 50) [µM] | GI50 (EJM) [µM] | GI50 (PL21) [µM] | GI50 (REH) [µM] | other results
1 | 5.51 | 9.5 | 13.1 | > 20 | 15.7 | 5.35 | 7.61 | CCC(=O)N1CCOc2c(cc(-c3ccc(OC)c(OC)c3)cc2OC[C@H]2CCCN(C)C2)C1 [I-CBP112] | 14.2 | 3.26 | > 20 | 11.2 | 8.7 | > 20 | > 20 | 17.8 | 8.12 | > 20 | 14.6 | > 20 | > 20 | GI50 (KOPN-8): 18.5 µM; GI50 (KMS12PE): 12.8 µM; GI50 (HL60): 4.55 µM; GI50 (OCI-AML-5): > 20 µM; GI50 (KMS28PE): > 20 µM; GI50 (KMS-11): 16.3 µM; GI50 (SET2): 12.6 µM; GI50 (SKM-1): 15.9 µM; GI50 (K562): > 20 µM; GI50 (KMS12BM): 2.36 µM; GI50 (Molt-16): 17.6 µM; GI50 (Jurkat): > 20 µM; GI50 (KMS26): 2.3 µM; GI50 (Tanoue): > 20 µM; GI50 (ML2): > 20 µM; GI50 (KMS34): 2.53 µM; GI50 (SEM cells): 5.34 µM; GI50 (SD-1): 13.5 µM; GI50 (OCI-AML-2): 9.7 µM
2 | 3.49 | 4.8 | 3.33 | 7.62 | 6.93 | 2.85 | 2.63 | COc1ccc(CCc2nc3cc(-c4c(C)noc4C)ccc3n2C[C@H](C)N2CCOCC2)cc1Cl [SGC-CBP30] | 7.54 | 1.27 | 11.8 | 2.53 | 7.4 | 15.6 | 12.3 | 3.93 | 3.77 | 16.4 | 3.87 | 17 | 18.5 | GI50 (KOPN-8): 7.23 µM; GI50 (KMS12PE): 5.34 µM; GI50 (HL60): 4.01 µM; GI50 (OCI-AML-5): > 20 µM; GI50 (KMS28PE): 17.9 µM; GI50 (KMS-11): 2.41 µM; GI50 (SET2): 4.47 µM; GI50 (SKM-1): 6.61 µM; GI50 (K562): 8.86 µM; GI50 (KMS12BM): 1.3 µM; GI50 (Molt-16): 7.98 µM; GI50 (Jurkat): 12 µM; GI50 (KMS26): 1.34 µM; GI50 (Tanoue): 8.88 µM; GI50 (ML2): 6.65 µM; GI50 (KMS34): 1.3 µM; GI50 (SEM cells): 2.83 µM; GI50 (SD-1): 7.28 µM; GI50 (OCI-AML-2): 3.68 µM
